Eight molecules from patent US20250099420A1, “SMALL MOLECULE MODULATORS OF GPR139 COMPLEX” (University of Florida Research Foundation, Incorporated, priority 2022, published 2025) can be followed below.

Structures are written as SMILES. Read-outs that look alike come from different tables or passages of the source.

The target in one series is T1, GPR139 (Homo sapiens, UniProt Q6DWJ6).
T1 sequence (Q6DWJ6 1-353): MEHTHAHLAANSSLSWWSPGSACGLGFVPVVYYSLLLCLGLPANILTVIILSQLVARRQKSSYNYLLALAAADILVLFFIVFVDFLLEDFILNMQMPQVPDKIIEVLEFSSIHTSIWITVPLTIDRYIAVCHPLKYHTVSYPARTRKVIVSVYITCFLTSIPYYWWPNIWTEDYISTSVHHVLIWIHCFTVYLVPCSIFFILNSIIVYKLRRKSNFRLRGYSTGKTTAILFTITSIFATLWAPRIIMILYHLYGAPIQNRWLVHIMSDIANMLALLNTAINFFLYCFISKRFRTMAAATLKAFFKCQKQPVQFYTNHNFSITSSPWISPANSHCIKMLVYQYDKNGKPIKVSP
The series is described as follows: GPR139 Agonist titration / agonist counterscreen assay (calcium detection, HEK-GPR139 cells). Type of series: cell-based. On the set-up: expressed in transfected cells; host or cells: HEK Aequorin cells, Maxcyte transient transfection. To be noted: GPR139 Agonist Activity; for Averaged Max % Response (±St. Dev.): activity relative to known control; for EC50: read-out: EC50. On the procedure: GPR activity was assessed using a calcium detection assay. […] Negative control samples were treated with DMSO. […] Intracellular calcium was measured using Calcium 5.
In general terms: A counterscreen serves to expose hits that act by an unwanted route or on another target.

In a further series the test system is parental HEK cells. Nature of the series: HEK parental Agonist Counterscreen Assay (non-transfected cells). It is filed as cell-based. To be noted: for Averaged Max % Response (±St. Dev.): activity relative to known control. The text has this:
The high control for the agonist counterscreen was Forskolin not acetylcholine.

The mark [1] stands for this setting: values printed in E-notation without unit.
[2] abbreviates: Homo sapiens, HEK293, HEK Agonist Activity section of Table 4 (parental HEK counterscreen).
Setting [3] is: HEK Agonist Activity, parental non-transfected HEK cells.
The mark [4] stands for this setting: Homo sapiens, HEK293, HEK Agonist Activity, parental non-transfected HEK cells.

For the molecule `O=C(CCCOc1ccc(Cl)cc1Cl)NNC(=O)Cc1ccccc1` [SR-01000067982], the “Averaged Max % Response (±St. Dev.)” value is 88.62 ± 11.28% at GPR139 and 10.05 ± 3.22% with parental HEK cells (HEK Agonist Activity section). Moreover, the “Lipophilic Efficiency (logD)” value is listed as 3.55 on GPR139 (based on logD) and 1.37 in the series with parental HEK cells (HEK Agonist Activity section). Further, the entries for the “Lipophilic Efficiency (logP)” value at GPR139 (based on logP) and with parental HEK cells (HEK Agonist Activity section) were 3.54 and 1.37, respectively. The “Hill Slope” value on GPR139 (fitted dose-response curve) turned out to be 0.94. Besides, on GPR139 (ligand efficiency), the “Efficiency Ligand” value is 0.39. Besides, the half-maximal effective concentration (EC50) (in general, the concentration that produces a half-maximal response) was 98.6 nM on GPR139 (setting [1]) and > 14.8 µM with parental HEK cells (setting [2]).

With `CN(Cc1ccc[nH]1)C(=O)CN1C(=O)NC2(CCc3ccccc3C2)C1=O` (stereo not drawn) [SR-01000068179], on GPR139, the “Efficiency Ligand” value is on record as 0.31, the “Hill Slope” value was determined as 0.84, the “Lipophilic Efficiency (logD)” value was 3.64 and the “Lipophilic Efficiency (logP)” value is reported as 3.64. Also, the “Averaged Max % Response (±St. Dev.)” value on GPR139 is reported as 87.03 ± 9.26%. In addition, the 50% effective concentration (EC50) at GPR139 (HEK-GPR139 cells) was 1100 nM. In the series with parental HEK cells (HEK Agonist Activity section), the “Lipophilic Efficiency (logD)” value is 2.52, the “Lipophilic Efficiency (logP)” value was determined as 2.52 and the “Averaged Max % Response (±St. Dev.)” value worked out at 2.62 ± 3.03%. Besides, the EC50 with parental HEK cells (setting [2]) was > 14.7 µM.

As for `CN(Cc1cccs1)C(=O)CN1C(=O)NC(C)(c2ccc3c(c2)OCO3)C1=O` (stereo not drawn) [SR-01000068229], the figures for the “Averaged Max % Response (±St. Dev.)” value at GPR139 and with parental HEK cells (HEK Agonist Activity) were 112.57 ± 13.42% and −2.42 ± 7.08%, respectively. Moreover, the “Lipophilic Efficiency (logD)” value at GPR139 (based on logD) is 7.01; in the series with parental HEK cells (HEK Agonist Activity), 3.29. In addition, the entries for the “Lipophilic Efficiency (logP)” value at GPR139 (based on logP) and in the series with parental HEK cells (HEK Agonist Activity) were 7.01 and 3.29, respectively. Also, on GPR139 (fitted dose-response curve), the “Hill Slope” value turned out to be 0.64. The “Efficiency Ligand” value on GPR139 (ligand efficiency) was found to be 0.43. The concentration for a half-maximal effect (EC50) on GPR139 (setting [1]) is 2.9 nM; with parental HEK cells (setting [3]) it was > 15.4 µM.

Consider `CC1C(CC(=O)NCC(=O)CCC2=Cc3ccccc3C2)=Nc2ccccc21` (stereo not drawn) [SR-01000068608], for which the “Averaged Max % Response (±St. Dev.)” value at GPR139 was found to be 124.32 ± 15.50%; with parental HEK cells (HEK Agonist Activity section), 24.17 ± 25.98%. Moreover, the “Lipophilic Efficiency (logD)” value on GPR139 (based on logD) amounted to 4.52; in the series with parental HEK cells (HEK Agonist Activity section) it was 2.46. For the same molecule, the entries for the “Lipophilic Efficiency (logP)” value on GPR139 (based on logP) and with parental HEK cells (HEK Agonist Activity section) were 4.51 and 2.46, respectively. In addition, the “Hill Slope” value at GPR139 (fitted dose-response curve) is 0.93. Besides, the “Efficiency Ligand” value at GPR139 (ligand efficiency) is 0.34. The EC50 in the series with parental HEK cells (setting [2]) was > 14.3 µM.

As for `Cc1cc(C(=O)NNC(=O)CNC(=O)Cc2cccc3ccccc23)c(C)o1` [SR-01000068718], the “Averaged Max % Response (±St. Dev.)” value on GPR139 is 119.00 ± 0.36%; in the series with parental HEK cells (HEK Agonist Activity), 20.24 ± 11.96%. The “Lipophilic Efficiency (logD)” value on GPR139 (based on logD) is recorded as 6.50; in the series on parental HEK cells (HEK Agonist Activity) it was 3.34. For the same molecule, the figures for the “Lipophilic Efficiency (logP)” value at GPR139 (based on logP) and in the series with parental HEK cells (HEK Agonist Activity) were 6.50 and 3.34, respectively. Also, the “Hill Slope” value on GPR139 (fitted dose-response curve) amounted to 0.58. Further, the “Efficiency Ligand” value at GPR139 (ligand efficiency) was determined as 0.40. Besides, the concentration for a half-maximal effect (EC50) on GPR139 (setting [1]) was 10.1 nM; with parental HEK cells (setting [4]) it was > 14.9 µM.

Take `O=C(CCC(=O)c1ccco1)NNC(=O)CN1CCCc2ccccc21` [SR-01000068721]: the “Averaged Max % Response (±St. Dev.)” value is listed as 109.68 ± 5.18% at GPR139 and 8.82 ± 10.34% in the series on parental HEK cells (HEK Agonist Activity). Moreover, the “Lipophilic Efficiency (logD)” value was 5.32 at GPR139 (based on logD) and 2.68 in the series on parental HEK cells (HEK Agonist Activity). The “Lipophilic Efficiency (logP)” value came out at 5.32 on GPR139 (based on logP) and 2.68 in the series on parental HEK cells (HEK Agonist Activity). Besides, the “Hill Slope” value at GPR139 (fitted dose-response curve) came out at 0.71. Further, the “Efficiency Ligand” value on GPR139 (ligand efficiency) is given as 0.40. Further, the 50% effective concentration (EC50) is 34.7 nM on GPR139 (setting [1]) and > 15.2 µM with parental HEK cells (setting [4]).

With `Cn1c(CC(=O)NNC(=O)CSc2ccc3ccccc3c2)nc2ccccc21` [SR-01000068729], the “Averaged Max % Response (±St. Dev.)” value at GPR139 was 126.00 ± 7.94%; with parental HEK cells (HEK Agonist Activity), −3.41 ± 1.08%. Besides, the entries for the “Lipophilic Efficiency (logD)” value on GPR139 (based on logD) and in the series on parental HEK cells (HEK Agonist Activity) were 6.03 and 1.73, respectively. For the same molecule, the “Lipophilic Efficiency (logP)” value on GPR139 (based on logP) stood at 6.03; with parental HEK cells (HEK Agonist Activity), 1.73. For the same molecule, the “Efficiency Ligand” value at GPR139 (ligand efficiency) came to 0.44. For the same molecule, the EC50 at GPR139 (setting [1]) was > 0.779 nM; with parental HEK cells (setting [3]) it was > 15.3 µM.

`O=C(COc1ccccc1F)NNC(=O)CSc1ccc2ccccc2c1` [SR-01000068761]: the “Averaged Max % Response (±St. Dev.)” value at GPR139 came out at 123.40 ± 6.48%; in the series with parental HEK cells (HEK Agonist Activity), 4.98 ± 10.48%. Moreover, the “Lipophilic Efficiency (logD)” value on GPR139 (based on logD) is on record as 5.00; in the series on parental HEK cells (HEK Agonist Activity) it was 1.82. The “Lipophilic Efficiency (logP)” value is 4.99 on GPR139 (based on logP) and 1.81 in the series with parental HEK cells (HEK Agonist Activity). Besides, the “Hill Slope” value on GPR139 (fitted dose-response curve) amounted to 0.55. On GPR139 (ligand efficiency), the “Efficiency Ligand” value stood at 0.42. The figures for the 50% effective concentration (EC50) at GPR139 (setting [1]) and in the series on parental HEK cells (setting [4]) were 9.7 nM and > 14.7 µM, respectively.
